Some test systems named below: HOP-92; OVCAR-4; MCF7; SK-MEL-28; EKVX; T47D; SF-539; ACHN; IGROV-1; SN12C; NCI-H23; M14; SF-268; U-251; CAKI-1; HCT-116; HT-29; HCC 2998; RXF 393; HL-60.
Holding throughout (assay): NCI anticancer screen, dose series, 48 h

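Exposure lasted 48 hours, with cells grown in 96-well plates and compounds tested at five concentrations. At the GI50, growth is halved.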 Activity calls are given as the source filed them. Cut-off read from the data, not from the text of the source: active = GI50 up to about 1.1 µM and inactive = higher. Where only a bound is given, the exact number is not on record here.

For the molecule `Nc1ncnc2c1ncn2CCCCC(=O)O`, the GI50 with HOP-92, in the experiment on OVCAR-4, in the experiment with MCF7, with SK-MEL-28, in the experiment on EKVX and in the experiment on T47D was > 100 µM (inactive) throughout. Moreover, the GI50 in the experiment on SF-539, in the experiment with ACHN, with IGROV-1, with SN12C, in the experiment on NCI-H23 and with M14 was > 100 µM (inactive) in each case. For the same molecule, the GI50 with SF-268, in the experiment with U-251, in the experiment with CAKI-1, in the experiment with HCT-116, in the experiment with HT-29 and in the experiment with HCC 2998 was > 100 µM (inactive) each time. In the experiment with RXF 393, the GI50 was > 100 µM (inactive).
In the case of `O=C(O[C@H](/C=C/c1ccccc1)P1(=O)N(Cc2ccccc2)[C@@H]2CCCC[C@H]2N1Cc1ccccc1)c1ccccc1`, the GI50 in the experiment on HOP-92 was 1.91 µM (inactive); in the experiment on OVCAR-4, 1.79 µM (inactive); in the experiment on MCF7, 3.63 µM (inactive); in the experiment with SK-MEL-28, 3.05 µM (inactive); with EKVX it was 3.96 µM (inactive); in the experiment on T47D it was 0.875 µM (active). The GI50 with SF-539 is 2.98 µM (inactive); in the experiment with ACHN, 3.94 µM (inactive); with IGROV-1, 3.37 µM (inactive); in the experiment with SN12C, 3.07 µM (inactive); in the experiment on NCI-H23, 2.47 µM (inactive); with M14 it was 4.11 µM (inactive). In addition, the GI50 in the experiment with SF-268 is 4.06 µM (inactive); with HL-60 it was 3.66 µM (inactive); in the experiment on U-251, 3.26 µM (inactive); in the experiment with CAKI-1 it was 2.16 µM (inactive); with HCT-116, 3.01 µM (inactive); in the experiment with HT-29 it was 3.45 µM (inactive). The GI50 in the experiment on HCC 2998 is 5.9 µM (inactive).
As to `CC(C)(C)OC(=O)C1C(=O)NC(=O)CC1C(COCc1ccccc1)OCc1ccccc1` (centres undefined), the GI50 was 15.5 µM (inactive) in the experiment on HOP-92; 19.9 µM (inactive) in the experiment on MCF7; 18.1 µM (inactive) with SK-MEL-28; 25.3 µM (inactive) in the experiment on EKVX; 14.3 µM (inactive) in the experiment with T47D; 21.6 µM (inactive) in the experiment on SF-539. The GI50 in the experiment on ACHN was 23 µM (inactive); in the experiment with IGROV-1 it was 22.9 µM (inactive); in the experiment on SN12C, > 10 µM (inactive); with NCI-H23 it was 32.6 µM (inactive); in the experiment with M14, 18.9 µM (inactive); with SF-268, 26.7 µM (inactive). Further, the GI50 in the experiment on HL-60 was 21.4 µM (inactive); with U-251, 20.5 µM (inactive); with CAKI-1, 50.4 µM (inactive); with HCT-116 it was 18.6 µM (inactive); with HT-29 it was 18.7 µM (inactive); in the experiment with HCC 2998 it was 25.7 µM (inactive).
As for `C[C@]12CC[C@H]3[C@@H](CCC4=CC(=O)CC[C@@H]43)[C@@H]1CC[C@@H]2OC1(O)C(=O)c2ccccc2C1=O`, the GI50 was > 100 µM (inactive) in the experiment with HOP-92; 91.4 µM (inactive) in the experiment with OVCAR-4; 30.8 µM (inactive) in the experiment with MCF7; > 100 µM (inactive) in the experiment with SK-MEL-28; 0.352 µM (active) with EKVX; 36.7 µM (inactive) with T47D. Further, the GI50 with SF-539 is 32.4 µM (inactive); with ACHN, 27.7 µM (inactive); in the experiment on IGROV-1, 69.7 µM (inactive); in the experiment with SN12C, 17 µM (inactive); in the experiment on NCI-H23 it was 27.1 µM (inactive); in the experiment on M14 it was 44.6 µM (inactive). Moreover, the GI50 in the experiment with SF-268 was 34.1 µM (inactive); with U-251, 48.8 µM (inactive); in the experiment with CAKI-1, 80.2 µM (inactive); in the experiment on HCT-116, 14.5 µM (inactive); with HT-29 it was 35.1 µM (inactive); in the experiment on HCC 2998 it was > 100 µM (inactive). In addition, the GI50 with RXF 393 was 33.3 µM (inactive).
As to `CN(C)CCNC(=O)c1cccc2c(NCCN(C)C)c3ccccc3nc12`, the GI50 is 2.16 µM (inactive) in the experiment on HOP-92; 2.49 µM (inactive) in the experiment on OVCAR-4; 2.36 µM (inactive) in the experiment with MCF7; 13.7 µM (inactive) in the experiment on SK-MEL-28; 2.99 µM (inactive) in the experiment with EKVX; 14.6 µM (inactive) in the experiment with T47D. The GI50 in the experiment on SF-539 was 3.05 µM (inactive); in the experiment on ACHN, 1.76 µM (inactive); in the experiment with IGROV-1, 2.68 µM (inactive); in the experiment on SN12C, 1.73 µM (inactive); in the experiment on NCI-H23 it was 2.33 µM (inactive); in the experiment on M14, 7.1 µM (inactive). In addition, the GI50 in the experiment with SF-268 was 3.07 µM (inactive); with U-251 it was 2.69 µM (inactive); in the experiment with CAKI-1, 2.69 µM (inactive); with HCT-116, 1.48 µM (inactive); in the experiment on HT-29 it was 1.61 µM (inactive); with HCC 2998, 1.91 µM (inactive). In the experiment with RXF 393, the GI50 was 3.6 µM (inactive).
Take `c1c[nH]c(-c2ccc(-c3ccc[nH]3)c3nsnc23)c1`: the GI50 in the experiment with HOP-92 is 31.8 µM (inactive); in the experiment with OVCAR-4 it was 0.612 µM (active); in the experiment on MCF7 it was 0.0877 µM (active); with SK-MEL-28, > 69.5 µM (inactive); in the experiment with EKVX it was 0.0426 µM (active); in the experiment on T47D, 0.0336 µM (active). In addition, the GI50 was > 56.9 µM (inactive) in the experiment with SF-539; > 52.6 µM (inactive) with ACHN; 20.3 µM (inactive) with IGROV-1; > 54.5 µM (inactive) in the experiment with SN12C; 0.0348 µM (active) with NCI-H23; > 46.9 µM (inactive) in the experiment on M14. The GI50 in the experiment on SF-268 was > 53.6 µM (inactive); in the experiment with HL-60 it was 73.8 µM (inactive); with U-251 it was 42.1 µM (inactive); in the experiment with CAKI-1, > 66.7 µM (inactive); with HCT-116 it was > 45.9 µM (inactive); with HT-29, > 26.3 µM (inactive). The GI50 in the experiment on HCC 2998 is 0.456 µM (active).
In the case of `O=C1c2c(Br)sc(Br)c2[C@H]2OC(=S)N[C@@H]12`, the GI50 with HOP-92 was 11.9 µM (inactive); in the experiment with OVCAR-4 it was 6.07 µM (inactive); with MCF7 it was 9.38 µM (inactive); in the experiment with SK-MEL-28 it was 2.79 µM (inactive); in the experiment with EKVX it was 4.89 µM (inactive); with T47D, 12.1 µM (inactive). For the same molecule, the GI50 was 16.6 µM (inactive) in the experiment with SF-539; 4.45 µM (inactive) in the experiment with ACHN; 10.1 µM (inactive) in the experiment on IGROV-1; 3.21 µM (inactive) in the experiment with SN12C; 5.15 µM (inactive) with NCI-H23; 1.95 µM (inactive) with M14. The GI50 in the experiment with SF-268 was 3.27 µM (inactive); in the experiment on U-251, 2.78 µM (inactive); with CAKI-1 it was 3.25 µM (inactive); in the experiment on HCT-116 it was 2.81 µM (inactive); in the experiment with HT-29 it was 2 µM (inactive); in the experiment with HCC 2998, 10.6 µM (inactive). For the same molecule, the GI50 with RXF 393 is 3.14 µM (inactive).
As for `COc1ccccc1NCc1cccc2c(=O)c3ccc(Cl)cc3oc12`, the GI50 is 25.7 µM (inactive) in the experiment with HOP-92; > 100 µM (inactive) in the experiment with OVCAR-4; 28.1 µM (inactive) in the experiment with MCF7; > 100 µM (inactive) in the experiment with SK-MEL-28; > 100 µM (inactive) in the experiment on EKVX; > 100 µM (inactive) in the experiment on T47D. Further, the GI50 was 65.2 µM (inactive) in the experiment on SF-539; > 100 µM (inactive) with ACHN; 56 µM (inactive) in the experiment with IGROV-1; > 100 µM (inactive) with SN12C; 59.3 µM (inactive) in the experiment on NCI-H23; > 100 µM (inactive) with M14. Besides, the GI50 in the experiment on HL-60 was 22.9 µM (inactive); in the experiment with U-251 it was 33.5 µM (inactive); in the experiment with CAKI-1 it was > 100 µM (inactive); in the experiment with HCT-116 it was > 100 µM (inactive); in the experiment with HT-29, 46.6 µM (inactive); with HCC 2998 it was > 100 µM (inactive).
`CN1CC(c2ccccc2)C(O)(C2(c3ccccc3)CN(C)CC(c3ccccc3)C2=O)C(c2ccccc2)C1` (centres undefined): the GI50 in the experiment on HOP-92 was 50.1 µM (inactive); in the experiment on OVCAR-4, > 100 µM (inactive); in the experiment on MCF7, > 100 µM (inactive); in the experiment on SK-MEL-28, > 100 µM (inactive); in the experiment on EKVX it was > 100 µM (inactive); in the experiment on T47D, > 100 µM (inactive). Moreover, the GI50 with SF-539, in the experiment on ACHN, in the experiment on IGROV-1, in the experiment with SN12C, with NCI-H23 and with M14 was > 100 µM (inactive) throughout. Moreover, the GI50 was > 100 µM (inactive) in the experiment on SF-268; 22.4 µM (inactive) with HL-60; > 100 µM (inactive) in the experiment on U-251; > 100 µM (inactive) with CAKI-1; 75.3 µM (inactive) with HCT-116; > 100 µM (inactive) in the experiment on HT-29.
Turning to `CCOC(=O)Nn1c(C)nnc1-c1ccccc1`, the GI50 in the experiment on HOP-92, in the experiment on OVCAR-4, in the experiment on MCF7, in the experiment on EKVX, in the experiment on T47D and in the experiment with SF-539 was > 100 µM (inactive) throughout. Also, the GI50 with ACHN, in the experiment on IGROV-1, with SN12C, with NCI-H23, in the experiment on M14 and in the experiment with SF-268 was > 100 µM (inactive) throughout. The GI50 in the experiment with U-251, with CAKI-1, with HCT-116, in the experiment with HT-29, in the experiment on HCC 2998 and with RXF 393 was > 100 µM (inactive) throughout.
Turning to `O=C(O)c1c(Cl)c(Cl)c(Cl)c(Cl)c1C(=O)Nc1ccc2cn[nH]c2c1`, the GI50 in the experiment with HOP-92 is > 100 µM (inactive); with OVCAR-4 it was > 100 µM (inactive); in the experiment on MCF7 it was 92.7 µM (inactive); in the experiment on SK-MEL-28, > 100 µM (inactive); in the experiment with EKVX, > 100 µM (inactive); with T47D, 74.3 µM (inactive). Further, the GI50 in the experiment with SF-539, in the experiment on ACHN, in the experiment with IGROV-1, with SN12C, in the experiment with NCI-H23 and with M14 was > 100 µM (inactive) in each case. The GI50 in the experiment with SF-268, in the experiment with U-251, with CAKI-1, in the experiment on HCT-116, in the experiment with HT-29 and in the experiment on RXF 393 was > 100 µM (inactive) in each case.

Source of the values: ChEMBL document CHEMBL1201862, “PubChem BioAssay data set” (2004).
